From the supplement of paper PMC6045584
± gives the standard deviation of the averaged measurements.

Columns and labels:
[1] = compound: C[C@@H](Oc1cc(-c2cnn(C3CCNCC3)c2)cnc1N)c1c(Cl)ccc(F)c1Cl; assay: surviving fraction relative to DMSO-only wells; higher = less growth inhibition; conditions: exposure time: 5 days
Outline: (§1)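 In 384-well plates, 250–500 log-phase tumour cells per well were given 24 hours before five days of continuous exposure to inhibitors at 0.5, 1, 5, 10, 50, 100, 500 and 1000 nM. Surviving fraction is luminescence from CellTiter-Glo, normalised to the median of wells containing DMSO alone. Reading took place after 10 minutes at room temperature.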

MLN-4924 = compound: NS(=O)(=O)OC[C@@H]1C[C@@H](n2ccc3c(N[C@H]4CCc5ccccc54)ncnc32)C[C@@H]1O [MLN-4924]; assay: as above; conditions: exposure time: 5 days
Outline: as §1

Test System	surviving fraction ([1]; 0.5 nM)	surviving fraction ([1]; 5 nM)	surviving fraction ([1]; 10 nM)	surviving fraction ([1]; 50 nM)	surviving fraction ([1]; 100 nM)	surviving fraction ([1]; 500 nM)	surviving fraction ([1]; 1000 nM)	surviving fraction (MLN-4924; 0.5 nM)	surviving fraction (MLN-4924; 1 nM)	surviving fraction (MLN-4924; 5 nM)	surviving fraction (MLN-4924; 10 nM)	surviving fraction (MLN-4924; 50 nM)	surviving fraction (MLN-4924; 100 nM)	surviving fraction (MLN-4924; 500 nM)	surviving fraction (MLN-4924; 1000 nM)	surviving fraction ([1]; 1 nM)
SCC003 HEADNECK	0.763 ± 0.099	0.835 ± 0.042	0.818 ± 0.03	1.04 ± 0.047	0.982 ± 0.047	0.672 ± 0.081	0.417 ± 0.025	1.14 ± 0.039	1.1 ± 0.016	1.11 ± 0.028	1.11 ± 0.048	1.11 ± 0.14	0.988 ± 0.041	0.526 ± 0.037	0.375 ± 0.037	–
SCC36 HEADNECK	0.784 ± 0.039	0.742 ± 0.077	0.742 ± 0.071	0.913 ± 0.021	–	0.403 ± 0.022	0.255 ± 0.011	1.06 ± 0.18	0.955 ± 0.11	1.13 ± 0.061	1.14 ± 0.09	0.544 ± 0.12	0.259 ± 0.029	0.0483 ± 0.0085	0.047 ± 0.002	0.784 ± 0.07
SCC47 HEADNECK	0.909 ± 0.012	0.988 ± 0.018	0.924 ± 0.037	1.06 ± 0.031	0.96 ± 0.066	0.721 ± 0.017	0.472 ± 0.024	1.12 ± 0.028	1.1 ± 0.11	1.06 ± 0.016	1.07 ± 0.022	0.717 ± 0.053	0.51 ± 0.05	0.307 ± 0.025	0.263 ± 0.024	0.9017 ± 0.0072
SCC90 HEADNECK	–	0.934 ± 0.045	–	1.12 ± 0.098	1.17 ± 0.13	0.717 ± 0.028	–	1.09 ± 0.27	1.04 ± 0.042	1.04 ± 0.099	0.541 ± 0.0053	0.212 ± 0.033	0.167 ± 0.01	0.144 ± 0.018	0.16 ± 0.032	0.913 ± 0.028
SG27 HEADNECK	1.01 ± 0.016	–	0.893 ± 0.07	1 ± 0.089	0.92 ± 0.045	–	0.668 ± 0.053	1.07 ± 0.041	1.1 ± 0.12	1.11 ± 0.055	1.16 ± 0.13	0.991 ± 0.17	0.823 ± 0.076	0.618 ± 0.098	0.322 ± 0.055	–
SG28 HEADNECK	–	0.85 ± 0.067	–	1 ± 0.042	1.07 ± 0.098	–	0.764 ± 0.12	1.16 ± 0.16	1.16 ± 0.03	1.153 ± 0.0099	1.1 ± 0.032	0.726 ± 0.076	0.614 ± 0.1	0.296 ± 0.024	0.24 ± 0.0099	0.918 ± 0.053
SG31 HEADNECK	–	0.821 ± 0.059	0.843 ± 0.18	0.847 ± 0.063	0.845 ± 0.088	0.755 ± 0.061	0.485 ± 0.07	1.21 ± 0.15	1.37 ± 0.22	1.06 ± 0.24	1.12 ± 0.14	0.671 ± 0.12	0.553 ± 0.062	0.247 ± 0.0062	0.198 ± 0.034	0.821 ± 0.04
SG32 HEADNECK	0.809 ± 0.17	0.931 ± 0.15	0.799 ± 0.11	0.955 ± 0.15	–	0.475 ± 0.06	0.359 ± 0.092	1.17 ± 0.11	1.05 ± 0.14	1.36 ± 0.08	1.28 ± 0.16	1.04 ± 0.044	0.797 ± 0.051	0.277 ± 0.023	0.186 ± 0.018	0.907 ± 0.093
SG43 HEADNECK	1.14 ± 0.1	–	1.09 ± 0.22	0.946 ± 0.37	0.816 ± 0.13	0.564 ± 0.14	0.256 ± 0.082	1.15 ± 0.29	1 ± 0.32	1.02 ± 0.26	1.15 ± 0.18	0.885 ± 0.19	1.11 ± 0.15	0.463 ± 0.094	0.223 ± 0.087	1.22 ± 0.16
SIHA CERVIX	0.92 ± 0.038	–	0.931 ± 0.034	0.99 ± 0.011	1.07 ± 0.068	0.676 ± 0.042	0.628 ± 0.075	1.04 ± 0.11	1.07 ± 0.057	1.16 ± 0.099	1.22 ± 0.092	0.81 ± 0.086	0.611 ± 0.077	0.377 ± 0.021	0.312 ± 0.026	0.931 ± 0.01
SJSA1 BONE	0.881 ± 0.019	0.912 ± 0.062	0.935 ± 0.023	1.06 ± 0.069	1.05 ± 0.05	0.889 ± 0.053	0.622 ± 0.0085	0.247 ± 0.017	1.7 ± 0.13	1.68 ± 0.098	1.57 ± 0.046	1.64 ± 0.17	1.8 ± 0.063	1.62 ± 0.033	1.73 ± 0.071	0.9053 ± 0.0031
SKBR3 BREAST	0.731 ± 0.039	–	0.859 ± 0.071	0.997 ± 0.12	–	0.759 ± 0.035	–	1.01 ± 0.067	1.06 ± 0.12	1.11 ± 0.083	1.01 ± 0.062	0.187 ± 0.015	0.14 ± 0.01	0.159 ± 0.017	0.175 ± 0.011	0.814 ± 0.075
SNU475 LIVER	0.8177 ± 0.0046	0.829 ± 0.049	–	0.927 ± 0.039	–	0.853 ± 0.031	0.662 ± 0.04	0.976 ± 0.031	1.04 ± 0.031	1.04 ± 0.023	1.04 ± 0.062	1.12 ± 0.059	1.08 ± 0.046	0.663 ± 0.036	0.53 ± 0.012	–
SUM44 BREAST	0.865 ± 0.038	0.983 ± 0.021	0.935 ± 0.029	–	1.04 ± 0.026	0.892 ± 0.077	0.798 ± 0.046	1.22 ± 0.37	1.27 ± 0.4	1.27 ± 0.33	1.23 ± 0.36	0.785 ± 0.24	0.63 ± 0.22	0.486 ± 0.13	0.495 ± 0.17	0.874 ± 0.056
SUM149 BREAST	0.897 ± 0.12	–	0.86 ± 0.045	–	0.893 ± 0.1	0.73 ± 0.064	0.415 ± 0.029	1.08 ± 0.13	1.01 ± 0.16	1.09 ± 0.13	1.056 ± 0.0092	0.86 ± 0.073	0.555 ± 0.046	0.0803 ± 0.017	0.066 ± 0.003	0.877 ± 0.094
SUM149.B1*.S BREAST	0.902 ± 0.028	0.921 ± 0.037	0.904 ± 0.04	0.96 ± 0.032	0.929 ± 0.037	0.855 ± 0.056	0.729 ± 0.051	1.13 ± 0.076	1.09 ± 0.063	1.09 ± 0.021	1.08 ± 0.031	1.002 ± 0.0051	0.675 ± 0.057	0.107 ± 0.0071	0.0892 ± 0.0075	0.898 ± 0.036
SUM159 BREAST	1.07 ± 0.2	1.07 ± 0.18	1.05 ± 0.16	1.07 ± 0.19	0.984 ± 0.06	1.04 ± 0.19	0.94 ± 0.086	1.11 ± 0.039	1.07 ± 0.043	1.08 ± 0.023	1.07 ± 0.017	1.05 ± 0.018	1.01 ± 0.012	0.75 ± 0.022	0.433 ± 0.02	1.07 ± 0.17
SYO1 SYNOVIAL	0.814 ± 0.068	0.822 ± 0.031	0.781 ± 0.027	0.904 ± 0.01	0.829 ± 0.036	0.26 ± 0.063	0.123 ± 0.0083	0.996 ± 0.05	0.996 ± 0.029	1.01 ± 0.039	0.992 ± 0.03	0.65 ± 0.019	0.334 ± 0.028	0.0614 ± 0.0023	0.0519 ± 0.0031	0.821 ± 0.064
T47D BREAST	0.912 ± 0.03	0.938 ± 0.049	0.95 ± 0.026	1.02 ± 0.038	1.03 ± 0.059	–	0.856 ± 0.041	1.04 ± 0.012	1.02 ± 0.021	0.916 ± 0.036	0.835 ± 0.037	0.67 ± 0.023	0.694 ± 0.011	0.279 ± 0.019	0.27 ± 0.028	0.949 ± 0.026
U2OS BONE	0.938 ± 0.047	0.98 ± 0.028	–	–	0.976 ± 0.052	0.474 ± 0.02	0.472 ± 0.012	1.028 ± 0.0045	1.01 ± 0.015	0.988 ± 0.04	1.03 ± 0.049	1.04 ± 0.036	0.859 ± 0.022	0.403 ± 0.028	0.176 ± 0.015	0.974 ± 0.027
VCAP PROSTATE	–	1.02 ± 0.091	1.01 ± 0.031	1.08 ± 0.055	0.897 ± 0.061	0.429 ± 0.027	0.143 ± 0.0055	0.977 ± 0.06	1.08 ± 0.074	1.08 ± 0.15	0.926 ± 0.035	0.526 ± 0.029	0.401 ± 0.088	0.198 ± 0.046	0.169 ± 0.079	0.919 ± 0.097
VP229 BREAST	0.809 ± 0.029	0.95 ± 0.11	0.777 ± 0.12	1.08 ± 0.098	–	–	0.544 ± 0.024	1.07 ± 0.16	1.08 ± 0.19	1.17 ± 0.028	1.14 ± 0.22	1.04 ± 0.033	0.891 ± 0.12	0.233 ± 0.082	0.127 ± 0.022	–
